The source of these data is US20240287070A1, “FUSED HETEROCYCLIC DERIVATIVES” (Janssen Sciences Ireland Unlimited Company, priority 2021, published 2024).

The CC50 is the concentration giving 50% cytotoxicity. For orientation: EC50 means the concentration giving half of the maximal effect. The low end stands for greater potency, the high end for weaker potency.

Where only a bound is given, the exact number is not on record here.

A short description of series [1]: Cytotoxicity, ATPlite Luminescence Assay. It is filed as cell-based, human. The following applies: human, HepG2 or HepG2.117 cells, 3-days incubation unless marked with *. The method, then: Cytotoxicity of the compounds was tested using HepG2 or HepG2.117 cells, incubated for 3 or 4 days in the presence of compounds. The viability of the cells was assessed using the PERKIN ELMER ATPlite Luminescence Assay System.”
A general note: In ATP-based viability assays light output follows the ATP content of the culture.

Series [2] concerns HBV (HepG2.117 cell line, inducibly HBV producing). Briefly: Anti-HBV activity, intracellular HBV DNA by real-time PCR in HepG2.117 cell line. Format: cell-based, hepatitis B virus. The settings on record: HepG2.117 cells, 3 days of treatment. The method, then: The anti HBV activity was measured using the HepG2.117 cell line, a stable, inducibly HBV producing cell line, which replicates HBV in the absence of doxycycline (Tet-off system). The HepG2 cell line is available from ATCCR under number HB-8065. Transfection of the HepG2 cell line can be as described in Sun and Nassal 2006 Journal of Hepatology 45 (2006) 636-645 “Stable HepG2- and Huh7-based human hepatoma cell lines for efficient regulated expression of infectious hepatitis B virus”.
For the antiviral assay, HBV replication was induced, followed by a treatment with serially diluted compound in 96-well plates. After 3 days of treatment, the antiviral activity was determined by quantification of intracellular HBV DNA using real-time PCR and an HBV specific primer set and probe.
(Quantitative PCR measures a nucleic acid by following its amplification.)

Series [3] is described as follows: Human liver microsome stability. It is filed as in vitro ADME. The settings on record: 1 μM compound, NADPH 1 mM, 37° C., 0-60 min; for half-life at 1 μM: human, pooled human liver microsomes, pH 7.4, pooled human liver microsomes 0.5 mg/mL, read-out: HLM Metabolism t1/2; for HLM Metabolism t1/2: pooled human liver microsomes 0.5 mg/mL. The method, then: Human Liver Microsome Stability t½ (Min) of Compounds of Formula (I) […] All incubations are performed singularly for each compound. NADPH was added to initiate the reaction with the final concentration of 1 mM and the final incubation volume of 400 μL. At 6 time points (0, 5, 10, 20, 40 and 60 min) reactions were stopped by the removal of 50 μL of the incubation mixture into plates containing acetonitrile at a of 1:3 (v:v). The plates were centrifuged at 3000 rpm for 10 min at 4° C. to precipitate the protein. Following protein precipitation, the sample supernatants were combined in cassettes of up to 8 compounds. The internal standard was added (1:1 supernatant to internal standard solution) and samples were analyzed using standard LC-MS conditions. From a plot of ln peak area ratio (compound peak area/internal standard peak area) against time, the gradient of the line is determined. Subsequently, half-life is calculated using the equations below: Elimination rate constant (k)=(−gradient) […]
(Microsomes from liver hold many membrane-bound enzymes, among them those of drug oxidation.)

Setting [4] is: Hepatitis B virus, HepG2.117, 72 h.

Consider `CN=[S@@](C)(=O)c1ccc([C@@H](C)N2C[C@@H](C)n3nc4c(c3C2=O)CN(C(=O)c2ccc(Cl)c(Cl)c2)[C@H](C)C4)cn1` (relative stereo) [Compound 29B, (3R,7R)-2-(3,4-dichlorobenzoyl)-9-((R*)-1-(6-((S*)—N,S-dimethylsulfonimidoyl)pyridin-3-yl)ethyl)-3,7-dimethyl-1,2,3,4,8,9-hexahydropyrido[4′,3′:3,4]pyrazolo[1,5-a]pyrazin-10(7H)-one], for which the CC50 at 3 days in series [1] was over 50 µM. In addition, in series [2] (setting [4]), a half-maximal effect (EC50) was put at 0.81 µM. Also, the half-life at 1 μM in series [3] is over 3 h.

`CN=[S@](C)(=O)c1ccc([C@H](C)N2C[C@@H](C)n3nc4c(c3C2=O)CN(C(=O)c2ccc(Cl)c(Cl)c2)[C@H](C)C4)cn1` (relative stereo) [Compound 29C, (3R,7R)-2-(3,4-dichlorobenzoyl)-9-((S*)-1-(6-((R*)—N,S-dimethylsulfonimidoyl)pyridin-3-yl)ethyl)-3,7-dimethyl-1,2,3,4,8,9-hexahydropyrido[4′,3′:3,4]pyrazolo[1,5-a]pyrazin-10(7H)-one] came in with a CC50 at 3 days in series [1] of over 50 µM. Moreover, in series [2] (setting [4]), a half-maximal response (EC50) required 0.051 µM. In addition, the half-life at 1 μM in series [3] was 1.43 h.

Compound `CN=[S@@](C)(=O)c1ccc([C@H](C)N2C[C@@H](C)n3nc4c(c3C2=O)CN(C(=O)c2ccc(Cl)c(Cl)c2)[C@H](C)C4)cn1` (relative stereo) [Compound 29D, (3R,7R)-2-(3,4-dichlorobenzoyl)-9-((S*)-1-(6-((S*)—N,S-dimethylsulfonimidoyl)pyridin-3-yl)ethyl)-3,7-dimethyl-1,2,3,4,8,9-hexahydropyrido[4′,3′:3,4]pyrazolo[1,5-a]pyrazin-10(7H)-one] yielded a CC50 at 3 days in series [1] of over 50 µM. In series [2] (setting [4]), this compound gave an EC50 of 0.059 µM. Moreover, the half-life at 1 μM in series [3] amounted to 1.25 h.

In series [1], `CC(c1ccc(C(C)(C)O)nc1)N1C[C@@H](C)n2nc3c(c2C1=O)CN(C(=O)c1ccc(Cl)c(Cl)c1)[C@H](C)C3` (single isomer, unassigned) [Compound 2A, (3R,7R)-2-(3,4-dichlorobenzoyl)-9-((R*)-1-(6-(2-hydroxypropan-2-yl)pyridin-3-yl)ethyl)-3,7-dimethyl-1,2,3,4,8,9-hexahydropyrido[4′,3′:3,4]pyrazolo[1,5-a]pyrazin-10(7H)-one] had a CC50 at 3 days of over 50 µM. The EC50 in series [2] is 0.099 µM. Further, the half-life at 1 μM in series [3] is over 3 h.

`Cc1ncc(C(C)N2C[C@@H](C)n3nc4c(c3C2=O)CN(C(=O)c2ccc(Cl)c(Cl)c2)[C@H](C)C4)cn1` (single isomer, unassigned) [Compound 4A, (3R,7R)-2-(3,4-dichlorobenzoyl)-3,7-dimethyl-9-((R*)-1-(2-methylpyrimidin-5-yl)ethyl)-1,2,3,4,8,9-hexahydropyrido[4′,3′:3,4]pyrazolo[1,5-a]pyrazin-10(7H)-one]: the CC50 at 3 days in series [1] is over 50 µM. For the same compound, a half-maximal effect in series [2] (EC50) was put at 0.28 µM. Also, the half-life at 1 μM in series [3] was over 3 h.

`CC(c1ccc(-n2cncn2)nc1)N1C[C@@H](C)n2nc3c(c2C1=O)CN(C(=O)c1ccc(Cl)c(Cl)c1)[C@H](C)C3` (single isomer, unassigned) [Compound 5A, (3R,7R)-9-((R*)-1-(6-(1H-1,2,4-Triazol-1-yl)pyridin-3-yl)ethyl)-2-(3,4-dichlorobenzoyl)-3,7-dimethyl-1,2,3,4,8,9-hexahydropyrido[4′,3′:3,4]pyrazolo[1,5-a]pyrazin-10(7H)-one] displayed a CC50 at 3 days in series [1] of over 50 µM. In series [2], this compound had an EC50 of 0.087 µM. Besides, in series [3], the half-life at 1 μM is over 3 h.

For the compound `Cc1ccc(C(C)N2C[C@@H](C)n3nc4c(c3C2=O)CN(C(=O)c2ccc(Cl)c(Cl)c2)[C@H](C)C4)nn1` (single isomer, unassigned) [Compound 6A, (3R,7R)-2-(3,4-dichlorobenzoyl)-3,7-dimethyl-9-((R*)-1-(6-methylpyridazin-3-yl)ethyl)-1,2,3,4,8,9-hexahydropyrido[4′,3′:3,4]pyrazolo[1,5-a]pyrazin-10(7H)-one], in series [1], the cytotoxic concentration (CC50) at 3 days was over 50 µM. Further, the EC50 in series [2] (setting [4]) was determined as 0.086 µM. Also, the “HLM Metabolism t1/2” value in series [3] was 1.18 h.

For the compound `CC(c1ccc(C(C)(C)O)cc1)N1C[C@@H](C)n2nc3c(c2C1=O)CN(C(=O)c1ccc(Cl)c(Cl)c1)[C@H](C)C3` (single isomer, unassigned) [Compound 8A, (3R,7R)-2-(3,4-dichlorobenzoyl)-9-((R*)-1-(4-(2-hydroxypropan-2-yl)phenyl)ethyl)-3,7-dimethyl-1,2,3,4,8,9-hexahydropyrido[4′,3′:3,4]pyrazolo[1,5-a]pyrazin-10(7H)-one], the midpoint of cytotoxicity in series [1], the CC50 at 3 days, lay at 20.1 µM. This compound yielded an EC50 in series [2] of 0.024 µM. Besides, the half-life at 1 μM in series [3] was over 3 h.

In the case of `CC(c1ccc(N2CCCC2=O)cc1)N1C[C@@H](C)n2nc3c(c2C1=O)CN(C(=O)c1ccc(Cl)c(C#N)c1)[C@H](C)C3` (single isomer, unassigned) [Compound 9A, 2-Chloro-5-((3R,7R)-3,7-Dimethyl-10-oxo-9-((R*)-1-(4-(2-oxopyrrolidin-1-yl)phenyl)ethyl)-1,2,3,4,7,8,9,10-octahydropyrido[4′,3′:3,4]pyrazolo[1,5-a]pyrazine-2-carbonyl)benzonitrile], the CC50 at 3 days in series [1] was over 50 µM. Also, the EC50 in series [2] (setting [4]) was 0.022 µM. Moreover, in series [3], the “HLM Metabolism t1/2” value was found to be 0.84 h.

In turn, `CC(c1cnc(C(F)(F)F)cn1)N1C[C@@H](C)n2nc3c(c2C1=O)CN(C(=O)c1ccc(Cl)c(C#N)c1)[C@H](C)C3` (single isomer, unassigned) [Compound 10B, 2-Chloro-5-((3R,7R)-3,7-dimethyl-10-oxo-9-((S*)-1-(5-(trifluoromethyl)pyrazin-2-yl)ethyl)-1,2,3,4,7,8,9,10-octahydropyrido[4′,3′:3,4]pyrazolo[1,5-a]pyrazine-2-carbonyl)benzonitrile] displayed a CC50 at 3 days in series [1] of over 50 µM. In addition, a half-maximal response in series [2] (setting [4]) (EC50) required 0.087 µM. The half-life at 1 μM in series [3] is over 3 h.

Take `CC(c1ccc(-n2cncn2)cc1)N1C[C@@H](C)n2nc3c(c2C1=O)CN(C(=O)c1ccc(Cl)c(C#N)c1)[C@H](C)C3` (single isomer, unassigned) [Compound 11A, 5-((3R,7R)-9-((R*)-1-(4-(1H-1,2,4-Triazol-1-yl)phenyl)ethyl)-3,7-dimethyl-10-oxo-1,2,3,4,7,8,9,10-octahydropyrido[4′,3′:3,4]pyrazolo[1,5-a]pyrazine-2-carbonyl)-2-chlorobenzonitrile]: the half-maximal cytotoxic concentration (CC50) at 3 days in series [1] is over 50 µM. The compound further had an EC50 in series [2] (setting [4]) of 0.039 µM. Besides, the half-life at 1 μM in series [3] was over 3 h.

The compound `CC(c1ccc(C(F)(F)F)nc1)N1C[C@@H](C)n2nc3c(c2C1=O)CN(C(=O)c1ccc(Cl)c(C#N)c1)[C@H](C)C3` (single isomer, unassigned) [Compound 12A, 2-Chloro-5-((3R,7R)-3,7-dimethyl-10-oxo-9-((R*)-1-(6-(trifluoromethyl)pyridin-3-yl)ethyl)-1,2,3,4,7,8,9,10-octahydropyrido[4′,3′:3,4]pyrazolo[1,5-a]pyrazine-2-carbonyl)benzonitrile] returned a CC50 at 3 days in series [1] of over 50 µM. The same compound had an EC50 in series [2] of 0.6 µM. Also, the half-life at 1 μM in series [3] was over 3 h.

As to `CNC(=O)C1(Oc2ccc(C(C)N3C[C@@H](C)n4nc5c(c4C3=O)CN(C(=O)c3ccc(Cl)c(C#N)c3)[C@H](C)C5)cc2)CC1` (single isomer, unassigned) [Compound 13A, 1-(4-((R*)-1-((3R,7R)-2-(4-chloro-3-cyanobenzoyl)-3,7-dimethyl-10-oxo-1,2,3,4,7,8-hexahydropyrido[4′,3′:3,4]pyrazolo[1,5-a]pyrazin-9(10H)-yl)ethyl)phenoxy)-N-methylcyclopropanecarboxamide], the CC50 at 3 days in series [1] is over 50 µM. For the same compound, the EC50 in series [2] was determined as 0.037 µM. Besides, the half-life at 1 μM in series [3] came out at 1.88 h.

On to `CC(c1ccc(C2(O)CC2)cc1)N1C[C@@H](C)n2nc3c(c2C1=O)CN(C(=O)c1ccc(Cl)c(C#N)c1)[C@H](C)C3` (single isomer, unassigned) [Compound 14A, 2-Chloro-5-((3R,7R)-9-((R*)-1-(4-(1-hydroxycyclopropyl)phenyl)ethyl)-3,7-dimethyl-10-oxo-1,2,3,4,7,8,9,10-octahydropyrido[4′,3′:3,4]pyrazolo[1,5-a]pyrazine-2-carbonyl)benzonitrile], for which the CC50 at 3 days in series [1] is over 50 µM. The EC50 in series [2] (setting [4]) was 0.012 µM. Also, in series [3], the half-life at 1 μM was found to be 1.37 h.
